Source: article PMC10720709, “Design, synthesis, and evaluation of 4-(3-(3,5-dimethylisoxazol-4-yl)benzyl)phthalazin-1(2H)-one derivatives: potent BRD4 inhibitors with anti-breast cancer activity” (Frontiers in Pharmacology, 2023)
Read-outs that look alike come from different tables or passages of the source.

Columns and labels:
[1] = tested on: MDA-MB-231 cells; assay: MTT cell viability assay, MDA-MB-231; assay type: cell-based; conditions: Homo sapiens, read-out: Cytotoxicity IC50
Method: (§1) MDA-MB-468, MDA-MB-231, and MCF-7 cell lines were sourced from the National Collection of Authenticated Cell Culture, China. Cells were maintained in DMEM medium supplemented with 10% FBS and 1% penicillin/streptomycin, and incubated at 37°C in a humidified atmosphere containing 5% CO2.
(§2) The viability of cells was assessed using the MTT assay. Cells were seeded at a density of 3×10^3 cells per well in a 96-well plate and treated with varying concentrations (0.05, 0.2, 0.8, 3.2, 6.4, 12.8 µM) of the compounds for 72 h. Post-incubation, 100 µL of MTT solution (0.5 mg/mL) was added to each well and further incubated for 4 h. The resulting formazan crystals were dissolved in 150 µL DMSO, and the absorbance was measured at 570 nm using a microplate reader.

[2] = tested on: MDA-MB-468 cells; assay: MTT cell viability assay, MDA-MB-468; assay type: cell-based; conditions: Homo sapiens, read-out: Cytotoxicity IC50
Method: as §1, §2

[3] = tested on: MCF-7 cells; assay: MTT cell viability assay, MCF-7; assay type: cell-based; conditions: Homo sapiens, read-out: Cytotoxicity IC50
Method: as §1, §2

[4] = tested on: MCF-7 cells; assay: Wound scratch cell migration assay; assay type: cell-based; conditions: MCF-7, wound scratch, 1 μM, 48 h
Method: MCF-7 cells were seeded in 6-well plates at a density of 5×10^5 cells/well and incubated overnight. A scratch was made in the cell monolayer using a 10 µL pipette tip. […] Images were captured at 0, 12, 24, and 48-h intervals.

[5] = target: T1, recombinant BRD4 (BD1 + BD2) (Homo sapiens, UniProt O60885); assay: BRD4 TR-FRET activity assay; assay type: binding; conditions: for inhibition at 1 µM: 1 μmol/L, read-out: BRD4 inhibition rate; for IC50: TR-FRET, BRD4 (BD1 + BD2);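 on all read-outs here: signal rises with BET ligand binding to the bromodomains, so inhibitors lower it, 120 min incubation at room temperature, 1% DMSO, wells lacking ligand as negative control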
T1 construct: employing a recombinant BRD4 (BD1 + BD2) and its corresponding ligand
Method: The BRD4 activity assay utilized TR-FRET technology, employing a recombinant BRD4 (BD1 + BD2) and its corresponding ligand. The TR-FRET signal generated in the assay is proportional to the ligand’s binding to the bromodomains. All reactions contained a final DMSO concentration of 1%. All binding reactions were conducted at room temperature. Each 20 µL reaction mixture, in assay buffer, comprised bromodomains, the BET Ligand, and the specified inhibitor amount. For the negative control, 5 µL of assay buffer replaced the BET ligand. After a 120-min incubation with the ligand, the TR-FRET signal was captured using a Tecan Infinite M1000 plate reader. IC50 values were determined through nonlinear regression with a normalized dose-response fit in Prism GraphPad software.

[6] = target: PARP1 (Homo sapiens, UniProt P09874); assay: PARP1 enzymatic activity ELISA; assay type: biochemical; conditions: 0.5 μmol/L; read-out: PARP1 inhibition rate
Sequence of PARP1 (P09874 whole entry): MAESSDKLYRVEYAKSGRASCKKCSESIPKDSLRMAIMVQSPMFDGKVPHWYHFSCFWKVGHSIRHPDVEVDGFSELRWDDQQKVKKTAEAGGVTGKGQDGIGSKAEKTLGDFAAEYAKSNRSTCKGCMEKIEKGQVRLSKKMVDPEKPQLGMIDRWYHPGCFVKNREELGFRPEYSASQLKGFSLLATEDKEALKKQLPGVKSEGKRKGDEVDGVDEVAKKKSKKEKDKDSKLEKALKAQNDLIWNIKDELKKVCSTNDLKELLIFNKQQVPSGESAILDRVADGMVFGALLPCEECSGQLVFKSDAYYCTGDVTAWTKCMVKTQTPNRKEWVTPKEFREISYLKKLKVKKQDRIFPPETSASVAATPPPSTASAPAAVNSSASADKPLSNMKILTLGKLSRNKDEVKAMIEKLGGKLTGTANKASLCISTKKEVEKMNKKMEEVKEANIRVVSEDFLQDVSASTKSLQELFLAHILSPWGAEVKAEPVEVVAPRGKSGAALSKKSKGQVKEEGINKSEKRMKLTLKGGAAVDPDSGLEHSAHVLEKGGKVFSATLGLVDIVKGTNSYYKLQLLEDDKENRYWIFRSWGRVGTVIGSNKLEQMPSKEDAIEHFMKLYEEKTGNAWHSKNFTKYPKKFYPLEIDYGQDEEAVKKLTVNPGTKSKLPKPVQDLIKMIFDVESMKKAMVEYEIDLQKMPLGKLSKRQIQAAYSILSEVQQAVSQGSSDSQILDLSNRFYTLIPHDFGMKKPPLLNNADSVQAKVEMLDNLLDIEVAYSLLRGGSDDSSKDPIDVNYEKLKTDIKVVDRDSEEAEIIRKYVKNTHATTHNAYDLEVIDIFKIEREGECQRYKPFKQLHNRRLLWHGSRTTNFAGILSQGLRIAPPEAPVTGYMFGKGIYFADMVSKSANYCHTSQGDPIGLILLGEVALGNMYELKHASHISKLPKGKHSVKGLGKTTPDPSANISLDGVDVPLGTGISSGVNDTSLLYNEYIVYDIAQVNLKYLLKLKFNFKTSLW
Method: The inhibition of PARP1 enzymatic activity by the tested compounds was gauged using an ELISA in 96-well plates. Each well was pre-coated with histone (20 μg/mL) in 100 μL of PBS buffer and incubated overnight at 4 °C. […] This was followed by the addition of 5 μL of either the compound at varying concentrations or a solvent control. The reaction was initiated by adding 20 μL of PARP (50 ng/well) and incubating at 30°C for 1 h. Post-reaction, 50 µL of streptavidin-conjugated HRP was introduced, and the assay continued at 30°C for an additional 30 min. Finally, 100 μL of a solution containing H2O2 and luminol in 0.1 M citrate buffer (pH 5.4) was added, and the luminescent signal was recorded using a Molecular Devices SpectraMax M5 microplate reader.

SMILES | inhibition at 1 µM [5] | melting point | other results
Cc1sc2c(c1C)C(c1ccc(Cl)cc1)=N[C@@H](CC(=O)OC(C)(C)C)c1nnc(C)n1-2 [JQ1, reference compound] | – | – | IC50 ([1]; MDA-MB-231, 72 h): 4.83 µM; IC50 ([2]; MDA-MB-468, 72 h): 3.24 µM; IC50 ([3]; MCF7, 72 h): 18.4 µM; inhibition of cell migration (in words) [4]: most potent inhibitory effect
Cc1ccc(S(=O)(=O)Nc2cc(Cc3n[nH]c(=O)c4ccccc34)cc(-c3c(C)noc3C)c2)cc1 [DDT59] | 75% | – | IC50 [5]: 0.909 ± 0.396 µM; inhibition at 0.5 µM [6]: 8%; IC50 ([1]; MDA-MB-231, MTT, 72 h): 7.44 µM; IC50 ([2]; MDA-MB-468, MTT, 72 h): 11 µM; IC50 ([3]; MCF7, MCF-7, MTT, 72 h): > 20 µM
Cc1ccc(C(=O)Nc2cc(Cc3n[nH]c(=O)c4ccccc34)cc(-c3c(C)noc3C)c2)cc1 [DDT25] | 76% | – | IC50 ([1]; MDA-MB-231, MTT, 72 h): 11.6 µM; IC50 ([2]; MDA-MB-468, MTT, 72 h): 6.5 µM; IC50 ([3]; MCF7, MCF-7, MTT, 72 h): 12.5 µM
Cc1noc(C)c1-c1cc(Cc2n[nH]c(=O)c3ccccc23)cc(C(=O)N2CC[C@H](O)C2)c1 [DDT14] | 74% | 204 to 205 °C | IC50 [5]: 1.1 ± 0.45 µM; inhibition at 0.5 µM [6]: 53%; IC50 ([1]; MDA-MB-231, MTT, 72 h): 8.29 µM; IC50 ([2]; MDA-MB-468, MTT, 72 h): 14.4 µM; IC50 ([3]; MCF7, MCF-7, MTT, 72 h): > 20 µM
CC(=O)Nc1cccc(CNc2cc(Cc3n[nH]c(=O)c4ccccc34)cc(-c3c(C)noc3C)c2)c1 [DDT47] | 78% | – | IC50 ([1]; MDA-MB-231, MTT, 72 h): 17.1 µM; IC50 ([2]; MDA-MB-468, MTT, 72 h): 9.39 µM; IC50 ([3]; MCF7, MCF-7, MTT, 72 h): 11.7 µM
CC(=O)Nc1ccc(CNc2cc(Cc3n[nH]c(=O)c4ccccc34)cc(-c3c(C)noc3C)c2)cc1 [DDT48] | 96% | – | IC50 [5]: 0.46 ± 0.17 µM; IC50 ([1]; MDA-MB-231, MTT, 72 h): 8.77 µM; IC50 ([2]; MDA-MB-468, MTT, 72 h): 9.09 µM; IC50 ([3]; MCF7, MCF-7, MTT, 72 h): > 20 µM
Cc1cccc(C(=O)Nc2cc(Cc3n[nH]c(=O)c4ccccc34)cc(-c3c(C)noc3C)c2)c1 [DDT24] | 91% | > 250 °C | IC50 [5]: 1.88 ± 0.6 µM; IC50 ([1]; MDA-MB-231, MTT, 72 h): 8.23 µM; IC50 ([2]; MDA-MB-468, MTT, 72 h): 9.09 µM; IC50 ([3]; MCF7, MCF-7, MTT, 72 h): 12.8 µM
Cc1noc(C)c1-c1cc(Cc2n[nH]c(=O)c3ccccc23)cc(NCc2cccc(N)c2)c1 [DDT49] | 72% | – | IC50 [5]: 0.585 ± 0.225 µM; inhibition at 0.5 µM [6]: 50%
Cc1noc(C)c1-c1cc(Cc2n[nH]c(=O)c3ccccc23)cc(NCc2cccc(Br)c2)c1 [DDT40] | 3% | 235 to 236 °C | –
Cc1noc(C)c1-c1cc(Cc2n[nH]c(=O)c3ccccc23)cc(NCc2ccc(F)c(Br)c2)c1 [DDT43] | 4% | > 250 °C | –
Cc1noc(C)c1-c1cc(Cc2n[nH]c(=O)c3ccccc23)cc(NS(=O)(=O)C2CC2)c1 [DDT55] | 32% | 140 to 141 °C | –
Cc1noc(C)c1-c1cc(Cc2n[nH]c(=O)c3ccccc23)cc(NCc2ccc(Br)cc2)c1 [DDT41] | 17% | 200 to 201 °C | –
Cc1noc(C)c1-c1cc(Cc2n[nH]c(=O)c3ccccc23)cc(NS(=O)(=O)c2ccc(OCc3ccccc3)cc2)c1 [DDT74] | 34% | 148 to 149 °C | –
Cc1noc(C)c1-c1cc(Cc2n[nH]c(=O)c3ccccc23)cc(NS(=O)(=O)c2ccccc2C(F)(F)F)c1 [DDT80] | 15% | 197 to 198 °C | –
Cc1noc(C)c1-c1cc(Cc2n[nH]c(=O)c3ccccc23)cc(NS(=O)(=O)c2ccc(O)cc2)c1 [DDT79] | 7% | 238 to 239 °C | –
Cc1noc(C)c1-c1cc(Cc2n[nH]c(=O)c3ccccc23)cc(NS(=O)(=O)c2ccc(C(F)(F)F)cc2)c1 [DDT82] | 24% | 193 to 194 °C | –
CCS(=O)(=O)Nc1cc(Cc2n[nH]c(=O)c3ccccc23)cc(-c2c(C)noc2C)c1 [DDT50] | 69% | 195 to 196 °C | –
CCCc1ccc(S(=O)(=O)Nc2cc(Cc3n[nH]c(=O)c4ccccc34)cc(-c3c(C)noc3C)c2)cc1 [DDT63] | 51% | 148 to 149 °C | –
Cc1noc(C)c1-c1cc(Cc2n[nH]c(=O)c3ccccc23)cc(NC(=O)c2cccc([N+](=O)[O-])c2)c1 [DDT29] | 65% | > 250 °C | –

SMILES | inhibition at 1 µM [5] | melting point | other results
Cc1noc(C)c1-c1cc(Cc2n[nH]c(=O)c3ccccc23)cc(C(=O)NC2CCCCC2)c1 [DDT04] | 56% | 178 to 179 °C | –
CCc1ccc(S(=O)(=O)Nc2cc(Cc3n[nH]c(=O)c4ccccc34)cc(-c3c(C)noc3C)c2)cc1 [DDT62] | 67% | 202 to 203 °C | –
Cc1noc(C)c1-c1cc(Cc2n[nH]c(=O)c3ccccc23)cc(C(=O)Nc2ccccc2)c1 [DDT05] | 35% | 192 to 193 °C | –
Cc1ccccc1C(=O)Nc1cc(Cc2n[nH]c(=O)c3ccccc23)cc(-c2c(C)noc2C)c1 [DDT23] | 97% | – | IC50 ([1]; MDA-MB-231, MTT, 72 h): 8.83 µM; IC50 ([2]; MDA-MB-468, MTT, 72 h): 10.6 µM; IC50 ([3]; MCF7, MCF-7, MTT, 72 h): 18.7 µM
Cc1noc(C)c1-c1cc(Cc2n[nH]c(=O)c3ccccc23)cc(NCc2ccc(Cl)cc2)c1 [DDT39] | 16% | 200 to 201 °C | –
COCCS(=O)(=O)Nc1cc(Cc2n[nH]c(=O)c3ccccc23)cc(-c2c(C)noc2C)c1 [DDT53] | 9% | 181 to 182 °C | –
COc1cccc(S(=O)(=O)Nc2cc(Cc3n[nH]c(=O)c4ccccc34)cc(-c3c(C)noc3C)c2)c1 [DDT68] | 59% | 184 to 185 °C | –
Cc1noc(C)c1-c1cc(Cc2n[nH]c(=O)c3ccccc23)cc(C(=O)N[C@H]2CC[C@H](O)CC2)c1 [DDT10] | 36% | 199 to 200 °C | –
Cc1noc(C)c1-c1cc(Cc2n[nH]c(=O)c3ccccc23)cc(C(=O)N2CCN(C(=O)C3CC3)CC2)c1 [DDT17] | 16% | 154 to 155 °C | –
CCCS(=O)(=O)Nc1cc(Cc2n[nH]c(=O)c3ccccc23)cc(-c2c(C)noc2C)c1 [DDT51] | 4% | 165 to 166 °C | –
Cc1noc(C)c1-c1cc(Cc2n[nH]c(=O)c3ccccc23)cc(NS(=O)(=O)c2ccc(C(C)(C)C)cc2)c1 [DDT65] | 44% | 154 to 155 °C | –
COc1ccc(S(=O)(=O)Nc2cc(Cc3n[nH]c(=O)c4ccccc34)cc(-c3c(C)noc3C)c2)cc1 [DDT69] | 70% | 155 to 156 °C | –
Cc1noc(C)c1-c1cc(Cc2n[nH]c(=O)c3ccccc23)cc(NS(=O)(=O)c2ccc(F)cc2)c1 [DDT86] | 7% | 151 to 152 °C | –
Cc1noc(C)c1-c1cc(Cc2n[nH]c(=O)c3ccccc23)cc(NS(=O)(=O)c2ccc3c(c2)CCO3)c1 [DDT75] | 42% | 162 to 163 °C | –
Cc1ccc(CNc2cc(Cc3n[nH]c(=O)c4ccccc34)cc(-c3c(C)noc3C)c2)cc1 [DDT45] | 7% | 215 to 216 °C | –
Cc1noc(C)c1-c1cc(Cc2n[nH]c(=O)c3ccccc23)cc(NCc2cccc([N+](=O)[O-])c2)c1 [DDT36] | 3% | 229 to 230 °C | –
Cc1noc(C)c1-c1cc(Cc2n[nH]c(=O)c3ccccc23)cc(NS(=O)(=O)c2cccc(Cl)c2)c1 [DDT88] | 17% | 142 to 143 °C | –
Cc1noc(C)c1-c1cc(Cc2n[nH]c(=O)c3ccccc23)cc(NC(=O)c2cccc(N)c2)c1 [DDT31] | 71% | 236 to 237 °C | –
